# Reference: patent publication US10588967B2, “Chimeric antigen receptor (CAR) signalling system” (UCL BUSINESS PLC, priority 2014, dated 2020)
# Entries after “also recorded” stand apart in the source; their conditions may differ.
# What was measured:
# [1] = target: FKBP-like binding domains with a F36V mutation (Homo sapiens, UniProt P62942, F37V); conditions: cells engineered to express FKBP-like binding domain fusion proteins; cited from earlier work
# [2] = test system: T-cells transduced with inducible CAR with modified FKBP12 domains; assay: AP1903-inducible CD19 CAR: signalling of transduced T-cells challenged with CD19 negative or positive targets; assay type: cell-based
# Source text: FIG. 11—AP1903 homodimerizer inducible CAR. (a) AP1903 homodimerizer inducible CAR was constructed by using modified FKBP12 domains to constitute the heterodimerization motifs for both the antigen recognition component and the signalling component. The antigen recognition component recognizes CD19. (b) T-cells expressing this CAR along with non-transduced T-cells were stained with anti-Fc which recognizes the CAR spacer. The transduced T-cells expressed the CAR well. (c) Transduced T-cells were next challenged with increasing concentration of CID dimerizer AP1903 and challenged with either CD19 negative or CD19 positive target cells.
# AP1903 is a synthetic chemical inducer of dimerization which binds to two mutated FKB12 domains (Clackson et al (1998). Proc. Natl. Acad. Sci. U.S.A 95, 10437-10442). An inducible CAR was developed based on this system, using the modified FKBP12 domains to constitute the heterodimerization domain of both the antigen recognition component and signalling component in the framework as described in Example 1 with the antigen recognition domain and the signalling domain co-expressed with a FMD-2A like sequence (FIG. 11a and SEQ ID No. 24). The FKBP12 domains were codon-wobbled to prevent homologous recombination. T-cells were transduced with this construct and challenged with target cells which were CD19 negative or positive.
# [3] = test system: T-cells transduced with split CD19 CAR with EcR and RXR heterodimerization motifs; assay: RSL1-inducible CD19 CAR: IL-2 release of transduced T-cells challenged with CD19 negative or positive targets; assay type: cell-based; conditions: CD19 negative or CD19 positive target cells; increasing concentration of RSL1
# Source text: FIG. 10—RSL1 inducible CAR (a) an RSL1 inducible CAR was constructed by using retinoic acid receptor domains and ecodysone receptor domains to constitute the heterodimerization motifs for the antigen recognition component and the signalling component respectively. The antigen recognition component recognizes CD19. (b) T-cells expressing this CAR along with non-transduced T-cells were stained with anti-Fc which recognizes the CAR spacer. The transduced T-cells expressed the CAR well. (c) Transduced T-cells were next challenged with increasing concentration of RSL1 and challenged with either CD19 negative or CD19 positive target cells.
# Signaling through the signaling component may be determined by a variety of methods known in the art. […] Functional readouts, such as clonal expansion of T cells, upregulation of activation markers on the cell surface, differentiation into effector cells and induction of cytotoxicity or cytokine secretion may also be utilised. As an illustration, in the present examples the inventors determined levels of interleukin-2 (IL-2) produced by T-cells expressing a receptor component and signalling component of the CAR signalling system according to the present invention upon binding of antigen to the receptor component in the presence of varying concentrations of CID. […]
# Sequence of FKBP-like binding domains with a F36V mutation (P62942 2-108 F37V): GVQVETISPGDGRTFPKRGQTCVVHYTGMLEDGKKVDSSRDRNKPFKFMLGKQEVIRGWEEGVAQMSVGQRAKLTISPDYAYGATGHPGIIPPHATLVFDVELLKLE
Compound,Selectivity of dimerization: FKBP-like (F36V) domains versus endogenous FKBP [1],"Response / signalling of AP1903-inducible CAR T-cells ([2]; CD19 negative or CD19 positive target cells, increasing concentration of AP1903)","Signalling of AP1903-inducible CAR T-cells at very high dimerizer concentration ([2]; very high concentration of dimerizer, CD19 positive targets)",IL-2 release / signalling of RSL1-inducible CAR T-cells [3]
CC[C@H](C(=O)N1CCCC[C@H]1C(=O)O[C@H](CCc1ccc(OC)c(OC)c1)c1cccc(OCC(=O)NCCNC(=O)COc2cccc([C@@H](CCc3ccc(OC)c(OC)c3)OC(=O)[C@@H]3CCCCN3C(=O)[C@@H](CC)c3cc(OC)c(OC)c(OC)c3)c2)c1)c1cc(OC)c(OC)c(OC)c1 [AP1903],no interactions involving endogenous FKBP,responded only to CD19 positive targets in the presence of AP1903; also recorded: signal only in the presence of CID,signalling was inhibited; also recorded: signalling is reduced,
"CCc1c(OC)cccc1C(=O)NN(C(=O)c1cc(C)cc(C)c1)C(C)(C)C [RSL1, N-(2-ethyl-3-methoxybenzoyl)-N′-(3,5-dimethylbenzoyl)-N′-tert-butylhydrazine]",,,,Only CAR T-cells challenged with SupT1 targets in the presence of RSL1 released IL-2; also recorded: signal only in the presence of RSL1
